The IC50 is the concentration that inhibits the measured activity by half.

Data on 21 molecules can be found in BindingDB's records for doi:10.1016/j.bmc.2004.12.045 (Cnrs, 2005).

Counter-ions that a name gives are not always drawn. Where only a bound is given, the exact number is not on record here.

In the test the target is Glycogen synthase kinase-3 beta (Sus scrofa). Nature of the test: Kinase activities were assayed in buffers containing substrate, enzyme, and inhibitor at 30 °C in the presence of 15 uM ATP/ [gamma-32P] ATP. 32P incorporation was measured with a scintillation counter. The IC50 is the inhibitor concentration, which inhibits 50% of kinase activity that catalyzes the transfer of the terminal phosphate from 32P l. To be noted: pH 7.5.
As to `Cc1c2c(c(CNC(=O)CN(C)C)c3c4ccccc4n(COCC[Si](C)(C)C)c13)C(=O)N(Cc1ccccc1)C2=O` [N-[(2-benzyl-4-methyl-1,3-dioxo-5-{[2-(trimethylsilyl)ethoxy]methyl}-1H,2H,3H,5H-pyrrolo[3,4-b]carbazol-10-yl)methyl]-2-(dimethylamino)acetamide], the IC50 is above 10 µM. As for `Cc1c2c(c(C#N)c3c4ccccc4n(COCC[Si](C)(C)C)c13)C(=O)N(C)C2=O` [2,4-dimethyl-1,3-dioxo-5-{[2-(trimethylsilyl)ethoxy]methyl}-1H,2H,3H,5H-pyrrolo[3,4-b]carbazole-10-carbonitrile], the IC50 is above 10 µM. As for `Cc1c2c(c(CNC(=O)CCN(C)C)c3c4ccccc4n(COCC[Si](C)(C)C)c13)C(=O)N(C)C2=O` [N-[(2,4-dimethyl-1,3-dioxo-5-{[2-(trimethylsilyl)ethoxy]methyl}-1H,2H,3H,5H-pyrrolo[3,4-b]carbazol-10-yl)methyl]-3-(dimethylamino)propanamide], the IC50 was above 10 µM. Regarding `Cc1c2c(c(CN)c3c4ccccc4n(COCC[Si](C)(C)C)c13)C(=O)N(C)C2=O` [10-(aminomethyl)-2,4-dimethyl-5-{[2-(trimethylsilyl)ethoxy]methyl}-1H,2H,3H,5H-pyrrolo[3,4-b]carbazole-1,3-dione], the IC50 was above 10 µM. Next, `Cc1cc2c(c3c4ccccc4n(COCC[Si](C)(C)C)c13)CNC2=O` [5-Methyl-6-(2-trimethylsilanyl-ethoxymethyl)-1,2-dihydro-6H-pyrrolo[3,4-c]carbazol-3-one]: above 10 µM.

For the molecule `Cc1c2c(c(C#N)c3c4cc(Cl)ccc4n(COCC[Si](C)(C)C)c13)C(=O)N(C)C2=O` [8-chloro-2,4-dimethyl-1,3-dioxo-5-{[2-(trimethylsilyl)ethoxy]methyl}-1H,2H,3H,5H-pyrrolo[3,4-b]carbazole-10-carbonitrile], the IC50 is above 10 µM. Next, `Cc1cc(C)c(S(=O)(=O)NCc2nc3c(c4c2[nH]c2ccccc24)CNC3=O)c(C)c1` [2,4,6-Trimethyl-N-(3-oxo-1,2,3,6-tetrahydro-2,4,6-triaza-cyclopenta[c]fluoren-5-ylmethyl)-benzene-sulfonamide]: 1.5 µM; `Cc1nc2c(c3c4ccccc4n(CCN(C)C)c13)CNC2=O` [10-[2-(dimethylamino)ethyl]-8-methyl-4,7,10-triazatetracyclo[7.7.0.0^{2,6}.0^{11,16}]hexadeca-1(9),2(6),7,11(16),12,14-hexaen-5-one]: 7 µM. Regarding `Cc1c2c(c(CNC(=O)CN(C)C)c3c1[nH]c1ccccc13)C(=O)N(Cc1ccccc1)C2=O` [{[({2-benzyl-4-methyl-1,3-dioxo-1H,2H,3H,5H-pyrrolo[3,4-b]carbazol-10-yl}methyl)carbamoyl]methyl}dimethylazanium chloride], the IC50 was above 10 µM. With `Cc1c2c(c(CNC(=O)CCN(C)C)c3c4ccccc4n(COCC[Si](C)(C)C)c13)C(=O)N(Cc1ccccc1)C2=O` [N-[(2-benzyl-4-methyl-1,3-dioxo-5-{[2-(trimethylsilyl)ethoxy]methyl}-1H,2H,3H,5H-pyrrolo[3,4-b]carbazol-10-yl)methyl]-3-(dimethylamino)propanamide], the IC50 was above 10 µM. The figure for `Cc1cc2c(c3c1[nH]c1ccccc13)CNC2=O` [8-methyl-4,10-diazatetracyclo[7.7.0.0^{2,6}.0^{11,16}]hexadeca-1(9),2(6),7,11(16),12,14-hexaen-5-one] is above 10 µM; for `Cc1cc2c(c3c4ccccc4n(COCC[Si](C)(C)C)c13)C(=N)N(CCN(C)C)C2=O` [4-[2-(dimethylamino)ethyl]-3-imino-8-methyl-10-{[2-(trimethylsilyl)ethoxy]methyl}-4,10-diazatetracyclo[7.7.0.0^{2,6}.0^{11,16}]hexadeca-1(9),2(6),7,11(16),12,14-hexaen-5-one] it is above 10 µM. The figure for `CN(C)CC(=O)NCc1nc2c(c3c1[nH]c1ccccc13)CNC2=O` [2-(dimethylamino)-N-({5-oxo-4,7,10-triazatetracyclo[7.7.0.0^{2,6}.0^{11,16}]hexadeca-1(9),2(6),7,11(16),12,14-hexaen-8-yl}methyl)acetamide] is 8 µM. The figure for `Cc1c2c(c(CNC(=O)CN(C)C)c3c4ccccc4n(COCC[Si](C)(C)C)c13)C(=O)N(C)C2=O` [N-[(2,4-dimethyl-1,3-dioxo-5-{[2-(trimethylsilyl)ethoxy]methyl}-1H,2H,3H,5H-pyrrolo[3,4-b]carbazol-10-yl)methyl]-2-(dimethylamino)acetamide] is above 10 µM; for `Cc1cc2c(c3c4ccccc4n(COCC[Si](C)(C)C)c13)C(=O)N(CCN(C)C)C2=O` [2-[2-(dimethylamino)ethyl]-5-methyl-6-{[2-(trimethylsilyl)ethoxy]methyl}pyrrolo[3,4-c]carbazole-1,3(2H,6H)-dione] it is above 10 µM; for `Cc1c2c(c(CNC(=O)CN(C)C)c3c1[nH]c1ccccc13)C(=O)N(C)C2=O` [{[({2,4-dimethyl-1,3-dioxo-1H,2H,3H,5H-pyrrolo[3,4-b]carbazol-10-yl}methyl)carbamoyl]methyl}dimethylazanium chloride] it is above 10 µM. As for `Cc1nc2c(c3c1[nH]c1ccccc13)CNC2=O` [5-Methyl-1,2-dihydro-6H-2,4,6-triaza-cyclopenta[c]fluoren-3-one], the IC50 is above 10 µM. Next, `Cc1nc2c(c3c1[nH]c1ccccc13)CN(CCN(C)C)C2=O` [2-(2-Dimethylaminoethyl)-5-methyl-1,2-di-hydro-6H-2,4,6-triaza-cyclopenta[c]fluoren-3-one]: above 10 µM; `Cc1c2c(c(CN)c3c4ccccc4n(COCC[Si](C)(C)C)c13)C(=O)N(Cc1ccccc1)C2=O` [10-(aminomethyl)-2-benzyl-4-methyl-5-{[2-(trimethylsilyl)ethoxy]methyl}-1H,2H,3H,5H-pyrrolo[3,4-b]carbazole-1,3-dione]: above 10 µM. On to `O=C1c2nc(-c3ccccc3)c3[nH]c4ccccc4c3c2CN1Cc1ccccc1` [2-Benzyl-5-phenyl-1,2-dihydro-6H-2,4,6-triazacyclopenta[c]fluoren-3-one], for which the IC50 is above 10 µM.

For `NCc1nc2c(c3c1[nH]c1ccccc13)CNC2=O` [8-(aminomethyl)-4,7,10-triazatetracyclo[7.7.0.0^{2,6}.0^{11,16}]hexadeca-1(9),2(6),7,11(16),12,14-hexaen-5-one hydrochloride], the IC50 came out at 5.5 µM.
